Our source for the IC50 values is patent US12030883B2, “Hetero-tricyclic compounds as inhibitors of KRAS” (Incyte Corporation, priority 2021, dated 2024).

Structures are written as SMILES.

In experiment [1] the target is T1, KRAS G12D (Homo sapiens, UniProt P01116, G12D). Description: KRAS_G12D pERK assay (cellular pERK HTRF assay). It counts as cell-based. Also on record: host or cells: A427 or HPAF-II. Particulars: KRAS G12D cells (A427, HPAF-II named in method), 2 hours incubation, Phospho-ERK 1/2 HTRF; read-out: G12D_PERK (KRAS_G12D pERK assay IC50). The method, then: MIA PaCa-2 (KRAS G12C; ATCC® CRL-1420), A427 (KRAS G12D; ATCC® HTB53), HPAF-II (KRAS G12D; ATCC® CRL-1997) and NCI-H838 (KRAS WT; ATCC® CRL-5844) cells are purchased from ATCC and maintained in RPMI 1640 media supplemented with 10% FBS (Gibco/Life Technologies). The cells are plated at 5000 cells per well (8 uL) into Greiner 384-well low volume, flat-bottom, tissue culture treated white plates and incubated overnight at 37° C., 5% CO2. The next morning, test compound stock solutions are diluted in media at 3× the final concentration, and 4 uL are added to the cells. The plate is mixed by gentle rotation for 30 seconds (250 rpm) at room temperature. The cells are incubated with the KRAS G12C and G12D compounds for 4 hours or 2 hours respectively at 37° C., 5% CO2.
T1 sequence (P01116 1-188 isoform P01116-2 G12D): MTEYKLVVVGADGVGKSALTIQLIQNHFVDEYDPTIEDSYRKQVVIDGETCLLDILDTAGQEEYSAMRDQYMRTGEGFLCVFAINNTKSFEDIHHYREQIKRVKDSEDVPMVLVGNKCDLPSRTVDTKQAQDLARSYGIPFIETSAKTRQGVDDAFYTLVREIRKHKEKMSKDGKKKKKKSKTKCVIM
4 uL of 4× lysis buffer with blocking reagent (1:25) (Cisbio) are added to each well and plates are rotated gently (300 rpm) for 30 minutes at room temperature. 4 uL per well of Cisbio anti Phospho-ERK 1/2 d2 is mixed with anti Phospho-ERK 1/2 Cryptate (1:1) are added to each well, mixed by rotation and incubated overnight in the dark at room temperature. Plates are read on the Pherastar plate reader at 665 nm and 620 nm wavelengths. IC50 determination is performed by fitting the curve of inhibitor percent inhibition versus the log of the inhibitor concentration using the GraphPad Prism 7 software.

The next experiment addresses KRAS G12V (Homo sapiens, UniProt P01116, G12V). Description: GDP-GTP exchange assay, KRAS G12V (bodipy-GDP/GppNHp, SOS1). Type of experiment: biochemical. The conditions noted are these: bodipy-loaded KRAS G12V 2.5 nM, 3 hours pre-incubation with inhibitor, SOS1 150 nM, GppNHp 500 uM; read-out: G12V_exchange (KRAS_G12V exchange assay IC50). Here is the method: (§1) The inhibitor potency of the exemplified compounds was determined in a fluorescence based guanine nucleotide exchange assay, which measures the exchange of bodipy-GDP (fluorescently labeled GDP) for GppNHp (Non-hydrolyzable GTP analog) to generate the active state of KRAS in the presence of SOS1 (guanine nucleotide exchange factor). Inhibitors were serially diluted in DMSO and a volume of 0.1 μL was transferred to the wells of a black low volume 384-well plate. Five μL/well volume of bodipy-loaded KRAS G12D or G12V diluted to a final concentration of 2.5 nM in assay buffer (25 mM Hepes pH 7.5, 50 mM NaCl, 10 mM MgCl2 and 0.01% Brij-35) was added to the plate and pre-incubated with inhibitor for 4 hours (G12D) or 3 hours (G12V) at ambient temperature. A cyclic peptide described to selectively bind G12D mutant (Sakamoto et al., BBRC 484.3 (2017), 605-611) or internal compounds with confirmed binding were used as positive controls in the assay plates. The exchange was initiated by the addition of a 5 μL/well volume containing 1 mM GppNHp and 300 nM SOS1 in assay buffer. The 10 μL/well reaction concentration of the bodipy-loaded KRAS G12D or G12V, GppNHp, and SOS1 were 2.5 nM, 500 uM, and 150 nM, respectively.
(§2) Either GraphPad prism or XLfit was used to analyze the data. The IC50 values were derived by fitting the data to a four parameter logistic equation producing a sigmoidal dose-response curve with a variable Hill coefficient. Prism equation: Y=Bottom+(Top−Bottom)/(1+10^((LogIC50-X)*Hill slope)); XLfit equation: Y=(A+((B−A)/(1+((X/C)^D)))) where X is the logarithm of inhibitor concentration and Y is the response.

For experiment [2], the target named is T1, KRAS G12D. Description: GDP-GTP exchange assay, KRAS G12D (bodipy-GDP/GppNHp, SOS1). Type of experiment: biochemical. The conditions noted are these: bodipy-loaded KRAS G12D 2.5 nM, 4 hours pre-incubation with inhibitor, SOS1 150 nM, GppNHp 500 uM; read-out: G12D_exchange (KRAS_G12D exchange assay IC50). Here is the method: as §1, §2

KRAS G12V, sequence (P01116 1-188 isoform P01116-2 G12V): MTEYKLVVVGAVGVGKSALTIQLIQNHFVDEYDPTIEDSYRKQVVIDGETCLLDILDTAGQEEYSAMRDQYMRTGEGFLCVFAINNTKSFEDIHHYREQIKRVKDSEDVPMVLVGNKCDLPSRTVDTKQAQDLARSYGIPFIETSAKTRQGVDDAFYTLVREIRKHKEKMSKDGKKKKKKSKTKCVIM

On to `Cc1cc2c(nc(O[C@@H](C)[C@@H]3CCCN3C)c3c(=O)c(Nc4cnn(C)c4)cn([C@H]4[C@H]5CN[C@@H]4C5)c32)c(F)c1-c1cccc2c1C(C#N)CCC2` (single isomer, unassigned) [Example 26b], for which the values for the half-inhibitory concentration (IC50) on KRAS G12D [1], at KRAS G12V and at KRAS G12D [2] were 5000 to 10000 nM, 100 to 1000 nM and not above 100 nM, respectively.

As to `Cc1cc2c(nc(O[C@@H](C)[C@@H]3CCCN3C)c3c(=O)ccn([C@H]4[C@H]5CN[C@@H]4C5)c32)c(F)c1-c1cccc2c1C(C#N)CCC2` (stereo partly drawn) [Example 23, 8-(1-((1R,4R,5S)-2-azabicyclo[2.1.1]hexan-5-yl)-7-fluoro-9-methyl-5-((S)-1-((S)-1-methylpyrrolidin-2-yl)ethoxy)-4-oxo-1,4-dihydrobenzo[h][1,6]naphthyridin-8-yl)-1,2,3,4-tetrahydronaphthalene-1-carbonitrile], the concentration for half-maximal inhibition (IC50) on KRAS G12D [1], at KRAS G12V and at KRAS G12D [2] was not above 100 nM in each case.

With `C[C@H](Oc1nc2c(F)c(-c3cc(O)cc4ccc(F)cc34)c(CCC#N)cc2c2c1NC(=O)CN2C1C2CNC1C2)[C@@H]1CCCN1C` (single isomer, unassigned) [Example 4d], the IC50 (usually the point on the concentration scale where inhibition reaches its midpoint) on KRAS G12D [1] is 1000 to 5000 nM; on KRAS G12V, 100 to 1000 nM; on KRAS G12D [2], not above 100 nM.

Take `C[C@H](Oc1nc2c(F)c(-c3cc(O)cc4ccccc34)c(CCC#N)cc2c2c1CCCN2C1C2CNC1C2)[C@@H]1CCCN1C` (single isomer, unassigned) [Example 15b]: the IC50 on KRAS G12D [1], at KRAS G12V and at KRAS G12D [2] was not above 100 nM in each case.

As for `C[C@H](Oc1nc2c(F)c(-c3cccc4ccc(F)cc34)c(CCC#N)cc2c2c1NC(=O)CN2C1C2CNC1C2)[C@@H]1CCCN1C` (single isomer, unassigned) [Example 3a], the IC50 on KRAS G12D [1], on KRAS G12V and at KRAS G12D [2] was not above 100 nM throughout.

As for `CN(C)C1CN(c2nc3c(F)c(-c4cc(O)cc5ccccc45)c(CCC#N)cc3c3c2NC(=O)CN3C2C3CNC2C3)C1` (single isomer, unassigned) [Example 13a, 3-(1-((endo)-2-Azabicyclo[2.1.1]hexan-5-yl)-5-(3-(dimethylamino)azetidin-1-yl)-7-fluoro-8-(3-hydroxynaphthalen-1-yl)-3-oxo-1,2,3,4-tetrahydropyrazino[2,3-c]quinolin-9-yl)propanenitrile], the IC50 on KRAS G12D [1] is 1000 to 5000 nM; at KRAS G12V, not above 100 nM; on KRAS G12D [2] it was not above 100 nM.

On to `CNC(=O)c1cccc(-c2nc3c(F)c(-c4cc(O)cc5ccccc45)c(CCC#N)cc3c3c2NC(=O)CN3C2C3CNC2C3)c1` (single isomer, unassigned) [Example 9a, 3-(1-((endo)-2-Azabicyclo[2.1.1]hexan-5-yl)-9-(2-cyanoethyl)-7-fluoro-8-(3-hydroxynaphthalen-1-yl)-3-oxo-1,2,3,4-tetrahydropyrazino[2,3-c]quinolin-5-yl)-N-methylbenzamide], for which the values for the IC50 at KRAS G12D [1], at KRAS G12V and at KRAS G12D [2] were 1000 to 5000 nM, not above 100 nM and not above 100 nM, respectively.

For `C[C@H](Oc1nc2c(F)c(-c3cc(O)cc4ccc(F)cc34)c(CCC#N)cc2c2c1NC(=O)CN2C1C2CNC1C2)[C@@H]1CCCN1C` (single isomer, unassigned) [Example 4c], the IC50 on KRAS G12D [1], on KRAS G12V and at KRAS G12D [2] was not above 100 nM each time.

`CC1Cc2c(OC[C@@H]3CCCN3C)nc3c(F)c(-c4cc(O)cc5ccccc45)c(CCC#N)cc3c2N(C2C3CNC2C3)C1` (single isomer, unassigned) [Example 14a]: the figures for the half-maximal inhibitory concentration (IC50) at KRAS G12D [1], on KRAS G12V and on KRAS G12D [2] were 100 to 1000 nM, not above 100 nM and not above 100 nM, respectively.

With `C[C@H](Oc1nc2c(F)c(-c3cccc(Cl)c3Cl)c(CCC#N)cc2c2c1NC(=O)CN2C1C2CNC1C2)[C@@H]1CCCN1C` (single isomer, unassigned) [Example 2b], the IC50 at KRAS G12D [1] was 100 to 1000 nM; at KRAS G12V, not above 100 nM; on KRAS G12D [2], not above 100 nM.

On to `CC1Cc2c(OC[C@@H]3CCCN3C)nc3c(F)c(-c4cc(O)cc5ccccc45)c(CCC#N)cc3c2N(C2C3CNC2C3)C1` (single isomer, unassigned) [Example 14b], for which the IC50 was 1000 to 5000 nM at KRAS G12D [1], not above 100 nM on KRAS G12V and not above 100 nM at KRAS G12D [2].

Consider `C[C@H](Oc1nc2c(F)c(-c3cccc(Cl)c3Cl)c(CCC#N)cc2c2c1c(=O)c(-c1cnn(C)c1)cn2[C@H]1[C@H]2CN[C@@H]1C2)[C@@H]1CCCN1C` (single isomer, unassigned) [Example 24a], for which the values for the concentration for half-maximal inhibition (IC50) at KRAS G12D [1], on KRAS G12V and on KRAS G12D [2] were 5000 to 10000 nM, not above 100 nM and not above 100 nM, respectively.

Regarding `C[C@H](Oc1nc2c(F)c(-c3c[nH]c4ccccc34)c(CCC#N)cc2c2c1NC(=O)CN2C1C2CNC1C2)[C@@H]1CCCN1C` (single isomer, unassigned) [Example 1a], the IC50 at KRAS G12D [1], at KRAS G12V and at KRAS G12D [2] was not above 100 nM in each case.

Turning to `CN1CCC[C@H]1COc1nc2c(F)c(-c3cc(O)cc4ccccc34)c(CCC#N)cc2c2c1CCCN2C1C2CNC1C2` (single isomer, unassigned) [Example 12b], the IC50 on KRAS G12D [1] was 100 to 1000 nM; on KRAS G12V, not above 100 nM; at KRAS G12D [2], not above 100 nM.

In the case of `C[C@@H](CN(C)C)Oc1nc2c(F)c(-c3cc(O)cc4ccccc34)c(CCC#N)cc2c2c1NC(=O)CN2C1C2CNC1C2` (single isomer, unassigned) [Example 11c], the IC50 is 100 to 1000 nM on KRAS G12D [1], not above 100 nM on KRAS G12V and not above 100 nM on KRAS G12D [2].

As to `C[C@H](Oc1nc2c(F)c(-c3cccc(Cl)c3Cl)c(CCC#N)cc2c2c1c(=O)c(-c1cnn(C)c1)cn2[C@H]1[C@H]2CN[C@@H]1C2)[C@@H]1CCCN1C` (single isomer, unassigned) [Example 24b], the IC50 at KRAS G12D [1] is 100 to 1000 nM; at KRAS G12V, not above 100 nM; on KRAS G12D [2] it was not above 100 nM.

As to `C[C@@H](CN(C)C)Oc1nc2c(F)c(-c3cc(O)cc4ccccc34)c(CCC#N)cc2c2c1CCCN2C1C2CNC1C2` (single isomer, unassigned) [Example 16b], the half-maximal inhibitory concentration (IC50) on KRAS G12D [1] is 100 to 1000 nM; on KRAS G12V, not above 100 nM; at KRAS G12D [2], not above 100 nM.

For `C[C@H](Oc1nc2c(F)c(-c3cc(O)cc4ccc(F)cc34)c(CCC#N)cc2c2c1NC(=O)CN2C1C2CNC1C2)[C@@H]1CCCN1C` (single isomer, unassigned) [Example 4b], the IC50 on KRAS G12V and at KRAS G12D [2] was 100 to 1000 nM each time.

As for `CNC(=O)c1cccc(-c2nc3c(F)c(-c4cc(O)cc5ccccc45)c(CCC#N)cc3c3c2NC(=O)CN3C2C3CNC2C3)c1` (single isomer, unassigned) [Example 9b, 3-(1-((endo)-2-Azabicyclo[2.1.1]hexan-5-yl)-9-(2-cyanoethyl)-7-fluoro-8-(3-hydroxynaphthalen-1-yl)-3-oxo-1,2,3,4-tetrahydropyrazino[2,3-c]quinolin-5-yl)-N-methylbenzamide], the IC50 at KRAS G12V and on KRAS G12D [2] was 1000 to 5000 nM each time.

`C[C@H](Oc1nc2c(F)c(-c3cccc(Cl)c3Cl)c(CCC#N)cc2c2c1NC(=O)CN2C1C2CNC1C2)[C@@H]1CCCN1C` (single isomer, unassigned) [Example 2c]: the IC50 at KRAS G12V and on KRAS G12D [2] was 100 to 1000 nM each time.

On to `C[C@H](Oc1nc2c(F)c(-c3c[nH]c4ccccc34)c(CCC#N)cc2c2c1NC(=O)CN2C1C2CNC1C2)[C@@H]1CCCN1C` (single isomer, unassigned) [Example 1b], for which the IC50 on KRAS G12V and at KRAS G12D [2] was 100 to 1000 nM throughout.
